Patent US4517189A, “2,6,7,8-Substituted quinazolines, process for production thereof, and use thereof” (Showa Denko K.K., priority 1983, dated 1985)

Experiments:
[1] = tested on: platelet aggregation induced by arachidonic acid; assay: Inhibitory effect on platelet aggregation (arachidonic acid-induced, rabbit platelet-rich plasma); assay type: cell-based; conditions: arachidonic acid 137 μ moles/liter
Protocol: (1) Measurement of inhibitory effect on platelet aggregation:
Blood was drawn from ether-anesthetized rabbits (weighing 2.5 to 3.5 kg) through a canule inserted into the carotid artery. Immediately then, a 3.8% aqueous solution of sodium citrate was added to the collected blood in a volume of 1/10 of the volume of the blood after addition of the aqueous solution citrate solution. The blood was then centrifuged for 15 minutes at 150 G at room temperature to obtain plasma having platelet suspended therein as a supernatant.
An aliquot of 0.435 ml of platelet-rich plasma was put into the cell of an aggregometer adjusted to a temperature of 37° C. and a stirring speed of 1200 rpm. […] An aqueous solution of arachidonic acid as a platelet aggregation inducing agent (the final concentration of arachidonic acid is 137μ moles/liter) was added, and with stirring, changes in absorbance were measured for 10 minutes.
The effect of platelet aggregation inhibition of the test compound was calculated as follows: [formula] ΔC: a change in absorbance in a control run, ΔS: a change in absorbance when the test compound was added.
In the control run, 2.5 μl of dimethyl sulfoxide was added instead of the test compound.

[2] = tested on: blood pressure (average arterial pressure); assay: Blood pressure lowering activity in anesthetized rabbits; assay type: in vivo, rabbit; conditions: average of at least three rabbits
[3] = final concentration 3 μ moles/liter
[4] = final concentration 100 μ moles/liter
[5] = final concentration 10 μ moles/liter
[6] = final concentration 30 μ moles/liter

Compound: CCOC(=O)c1c(C)cc2cnc(-c3ccccc3F)nc2c1C [Example 4, 2-(o-fluorophenyl)-7-ethoxycarbonyl-6,8-dimethylquinazoline]
- inhibition of platelet aggregation ([1]; final concentration 1 μ moles/liter): 100%
- inhibition of platelet aggregation [1, 3]: 100%
- Blood pressure lowering effect ([2]; 100 μg/kg i.v.): 32 mmHg

Compound: CCOC(=O)c1c(C)cc2cnc(Cc3ccccc3)nc2c1C [Example 7, 2-benzyl-7-ethoxycarbonyl-6,8-dimethylquinazoline]
- inhibition of platelet aggregation [1, 4]: 100%
- Blood pressure lowering effect ([2]; 100 μg/kg i.v.): 18 mmHg

Compound: CCOC(=O)c1c(C)cc2cnc(C)nc2c1C [Example 6, 2-methyl-7-ethoxycarbonyl-6,8-dimethylquinazoline]
- inhibition of platelet aggregation [1, 4]: 100%
- Blood pressure lowering effect ([2]; 100 μg/kg i.v.): 12 mmHg

Compound: CCOC(=O)c1c(C)cc2cnc(-c3ccccc3C(F)(F)F)nc2c1C [Example 5, 2-(o-trifluoromethylphenyl)-7-ethoxycarbonyl-6,8-dimethylquinazoline]
- inhibition of platelet aggregation [1, 4]: 100%
- Blood pressure lowering effect ([2]; 100 μg/kg i.v.): 25 mmHg

Compound: CCOC(=O)c1c(C)cc2cnc(-c3ccccc3)nc2c1C [Example 2, 2-phenyl-7-ethoxycarbonyl-6,8-dimethylquinazoline]
- inhibition of platelet aggregation [1, 5]: 100%
- inhibition of platelet aggregation [1, 6]: 100%
- Blood pressure lowering effect ([2]; 100 μg/kg i.v.): 15 mmHg

Compound: CCOC(=O)c1c(C)cc2cnc(-c3ccccc3C)nc2c1C [Example 3, 2-(o-methylphenyl)-7-ethoxycarbonyl-6,8-dimethylquinazoline]
- inhibition of platelet aggregation [1, 5]: 100%
- inhibition of platelet aggregation [1, 6]: 100%
- Blood pressure lowering effect ([2]; 100 μg/kg i.v.): 20 mmHg

Compound: CCOC(=O)c1c(C)cc2cnc(-c3ccccc3Cl)nc2c1C [Example 1, 2-(o-chlorophenyl)-7-ethoxycarbonyl-6,8-dimethylquinazoline]
- inhibition of platelet aggregation [1, 3]: 100%
- inhibition of platelet aggregation [1, 5]: 100%
- inhibition of platelet aggregation [1, 6]: 100%
- Blood pressure lowering effect ([2]; 10 μg/kg i.v.): 12 mmHg
- Blood pressure lowering effect ([2]; 30 μg/kg i.v.): 22 mmHg
- Blood pressure lowering effect ([2]; 100 μg/kg i.v.): 49 mmHg
